Where “and” joins values, the source holds several entries; their conditions need not be identical. Equal entries are not always repeated.
Columns and labels:
[1] = test system: HCT-15 human colon cancer spheroids; experiment: 3D spheroid cell viability, acid phosphatase (APH) assay, HCT-15; assay type: cell-based; conditions: HCT-15 spheroids, 72 h, APH test; read-out: IC50 (μM) ± SD HCT-15
Procedure: (§1) In order to improve the predictive capacity of the in vitro assays, we tested HydroCuP activity in two 3D cell cultures of human colon cancer cells, HCT-15 and LoVo. The colon cancer spheroids were treated with HydroCuP for 72 h and the cell viability was assessed by means of the acid phosphatase (APH) assay (Fig. 1, panel A).
(§2) Figure 1 Activity in 3D cell cultures. (A) Spheroids (2.5 × 10^3 cells/well) were treated for 72 h with increasing concentrations of tested compounds. The growth inhibitory effect was evaluated by means of APH test. IC50 values were calculated from the dose-survival curves by four parameter logistic model (P < 0.05). SD = standard deviation.
(§3) Spheroids were initiated in liquid overlay by seeding 2.5 × 10^3 HCT-15 and LoVo cells/well in phenol red-free RPMI-1640 medium (Sigma Chemical Co.), containing 10% FCS and supplemented with 20% methyl cellulose stock solution. A total of 150 μl of this cell suspension was transferred to each well of a round bottom non-tissue culture treated 96 well-plate (Greiner Bio-one, Kremsmünster, Austria) to allow spheroid formation within 72 h.
(§4) A modified APH assay, which is based on quantification of cytosolic acid phosphatase activity, was used for determining cell viability in spheroids. Briefly, the pre-seeded spheroids were treated with fresh medium containing the compound to be studied at the appropriate concentration (range 5–150 μM). Triplicate cultures were established for each treatment. After 72 h, each well was treated with 100 μL of the assay buffer (0.1 M sodium acetate, 0.1% Triton-X-100, supplemented with ImmunoPure p-nitrophenyl phosphate; Sigma Chemical Co.) and, following 3 h of incubation, 10 μL of 1 M NaOH solution were added. The inhibition of the cell growth induced by the tested complexes was detected by measuring the absorbance of each well at 405 nm, using a Bio-Rad 680 microplate reader. Mean absorbance for each drug dose was expressed as a percentage of the control untreated well absorbance (T/C) and plotted vs drug concentration. IC50 values, the drug concentrations that reduce the mean absorbance at 405 nm 50% of those in the untreated control wells, were calculated by four-parameter logistic (4-PL) model. Evaluation was based on means from at least four independent experiments.

[2] = test system: LoVo human colon cancer spheroids; experiment: 3D spheroid cell viability, acid phosphatase (APH) assay, LoVo; assay type: cell-based; conditions: 72 h, APH test, read-out: IC50 (μM) ± SD LoVo
Procedure: as §1, §2, §3, §4

[3] = test system: Lewis Lung Carcinoma (LLC); experiment: In vivo antitumor activity towards Lewis Lung Carcinoma (LLC) implanted i.m. in C57BL mice; set-up: species or system mouse; conditions: for Average tumor weight (mean ± S.D., g) / Inhibition of tumor growth (%): day 15; for Body weight changes: LLC-bearing C57BL mice
Procedure: The schedule of HydroCuP administration in vivo was initially determined by assessing the total dose that could be injected without undue toxicity for different schedules in nontumor-bearing C57BL mice (data not shown). […] Three schedules of i.p. HydroCuP were administered: early treatment (days 3, 5, 7 and 9 after tumor inoculum), intermediate treatment (days 7–14) and late treatment with split-doses (days 9–11 with a loading dose and days 12–14 with a lower maintenance dose). […] Cisplatin treatment schedule was selected according to standard protocols designed to optimize its efficacy and minimize the occurrence of adverse events. For the early treatment, control mice received the vehicle (0.9% NaCl). HydroCuP was dosed at 25, 35 and 50 mg/kg i.p. on days 3, 5, 7, 9, 11 and 13 after tumor implantation. Cisplatin was dosed at 1.5 mg/kg i.p. on days 3, 5, 7, 9, 11 and 13 after tumor implantation.
The mice were purchased from Charles River, Italy, housed in steel cages under controlled environmental conditions (constant temperature, humidity, and 12 h dark/light cycle), and alimented with commercial standard feed and tap water ad libitum. The LLC cell line was purchased from ECACC, United Kingdom. The LLC cell line was maintained in DMEM (Euroclone, Pero, Italy) supplemented with 10% heat-inactivated foetal bovine serum (Euroclone, Pero, Italy), 10 mM L-glutamine, 100 U/mL penicillin, and 100 µg/mL streptomycin in a 5% CO2 air incubator at 37 °C. The LLC was implanted intramuscularly (i.m.) as a 2 × 10^6 cell inoculum into the right hind leg of 8-week old male and female C57BL mice (24 ± 3 g body weight). The antitumor activity of HydroCuP in LLC tumor model has been investigated by means of different schedules (early treatment, intermediate treatment and late treatment) and compared with that promoted by the reference metallodrug, CDDP. In the early-stage treatment, animals were treated at day 3, 5, 7, 9, 11 and 13 after the tumor cell inoculum with an i.p. injection of HydroCuP (25, 35 and 50 mg/kg), CDDP (1.5 mg/kg) or the vehicle solution (0.9% NaCl).
In the intermediate treatment, animals were treated after 7 days from tumor implantation (visible tumor) with daily i.p. doses of HydroCuP (30 and 50 mg/kg), CDDP (1.5 mg/kg) or the vehicle solution (0.9% NaCl). In the late treatment, animals were treated after 9 days from tumor implantation (palpable tumor) with i.p. doses of HydroCuP (50 mg/kg) from day 9 to day 11 and with i.p. doses of HydroCuP (30 mg/kg) from day 12 to day 14, or with daily doses of CDDP (1.5 mg/kg) or with the vehicle solution (0.9% NaCl). At day 15, animals were sacrificed, the legs were amputated at the proximal end of the femur, and the inhibition of tumor growth was determined according to the difference in weight of the tumor-bearing leg and the healthy leg of the animals expressed as a percentage referring to the control animals. Body weight was measured every 2 days and was taken as a parameter for systemic toxicity.

[4] = Nephrotoxicity: urinary biomarkers (uTP, NAG) in Sprague Dawley rats; assay type: in vivo, rat; conditions: single i.p. 1.5 mg/kg, urine 24, 72, 120 h
Procedure: Figure 5 Neurotoxicity studies. […] Bar: 500 µm. […] Nephrotoxicity studies. […] Error bars indicate the S.D. The potential nephrotoxic effect of HydroCuP was evaluated by measuring some specific biomarkers in urines obtained from 8-week-old male Sprague Dawley rats treated with a single i.p. injection of HydroCuP and CDDP. Urines of the treated animals were collected after 24, 72 and 120 h, and urinary total protein (uTP) and N-acetyl-β-D-glucosaminidase (NAG) were evaluated as signs of nephrotoxicity. […] On the contrary, treatment with HydroCuP determined a 24 h excretion of uTP roughly 12 times lower than that recorded with CDDP (Fig. 5, panel D). Following 120 h, the levels of uTP excreted by HydroCuP were 11 times lower compared with the reference metallodrug. Eight-week-old male Sprague Dawley rats were randomly allocated to five groups (five animals per group) and treated with a single i.p. injection of HydroCuP (50 mg/kg) or the vehicle solution (0.2 mL saline solution, control). Cisplatin (1.5 mg/kg,) was also used under the same experimental conditions for comparison purposes. […] Later, urines were centrifuged (150 g for 10 minutes at room temperature) to discard debris and aliquoted to measure creatinine, uTP and NAG. Urine creatinine assays were performed using creatinine assay kit from Sigma Chemical Co. (St. Louis, MO). uTPs were measured by means of BioRad Total Protein Test (Hercules, CA). Urinary NAG was measured spectrophotometrically with the NAG kit (Roche diagnostics, Basel, Switzerland) according to the manufacturer’s protocols. uTP and NAG are expressed as grams per millimoles of creatinine (g mmol^−1 creatinine).

[5] = set-up: method as in PMID 24035926; conditions: patients under cisplatin treatment; cited from earlier work
[6] = test system: DRG explants from 15 day-embryonic Sprague-Dawley rats; experiment: Neurotoxicity: neurite elongation in DRG explants; conditions: 48 h, DRG explants with NGF; for Neurotoxic effect (neurite elongation): OXP 5, 7.5, 10 μM, HydroCuP 5, 10, 20 μM
Procedure: To investigate the potential neurotoxic effect of HydroCuP, we employed a well-established in vitro model based on organotypic cultures of DRG from 15-day-old rat embryos. Neurite elongation under NGF influence was evaluated in DRG explants. […] For comparison purposes, the effect induced by the reference drugs OXP and CDDP was also tested.
OXP and HydroCuP toxicity at 48 h in DRG explants from 15 day-embryonic Sprague-Dawley rats. Representative images of neurite length in maturing DRG explants with different concentrations of OXP and HydroCuP (A). Bar: 500 µm.
DRG from E15 Sprague-Dawley rats (Envigo, San Pietro al Natisone, Italy) were aseptically removed and cultured onto a single layer of rat tail collagen surfaces in 35-mm dishes as previously described[36].
The DRG were incubated in AN2 medium [MEM added with 1.4 mM L-glutamine (Euroclone, Pero, Italy), 10% calf bovine serum (Hyclone, Thermo Scientific, Logan, UT) 50 µg/ml ascorbic acid, 0.6% glucose (Sigma-Aldrich) in the presence of 5 ng/ml nerve growth factor (NGF; Life Technologies, Monza, Italy) in a 5% CO2 humidified incubator at 37 °C.
To evaluate the neurotoxicity of HydroCuP and OXP, the DRG explants were treated for 2 h with NGF and subsequently exposed to each drug at different concentrations for 48 h. OXP was tested at 5, 7.5 and 10 μM while 5, 10 and 20 μM of HydroCuP was used. DRG treated with AN2 medium supplemented with 5 ng/ml NGF alone were used as controls. Phase-contrast micrographs were taken, and the length of the longest neurite in each DRG was measured by Image J (NIH, Bethesda, MD), using a standard calibration grating photographed at the same magnification. A compound is considered neurotoxic when the mean neurite elongation is reduced by 50% or more after drug exposure vs control.

[7] = patients, reported by the Food and Drug Administration; cited from earlier work
[8] = test system: LoVo colorectal oxaliplatin-sensitive xenograft; experiment: In vivo activity toward LoVo (OXP-sensitive) tumor xenograft in BALB/c nu/nu mice
Procedure: (§5) To this aim, we developed the OXP-sensitive and OXP-resistant LoVo xenografts in BALB/c nu/nu mice. […] OXP-sensitive or OXP-resistant LoVo cells (1 × 10^7) were injected in the flank of mice. Once tumor was established (tumor volumes of about 0.4 cm^3, around 14 days after tumor inoculation), mice were randomly divided into six groups (6 animals per group, 8 controls). The HydroCuP-treated groups (6 mice each group) received daily 30 mg/kg by i.p. injection and the OXP-treated group was given 2 mg/kg by i.p. injection. At day 30, animals were sacrificed, and the inhibition of tumor growth was determined (Fig. 4, panel A). Measurements of body weights were recorded from day 14 every 2 days until the experimental endpoint (Fig. 4, panel B).
(§6) (A) LoVo and LoVo-OXP tumor xenografts in 6-week-old BALB/c nu/nu mice by injecting 1 × 10^7 tumor cells subcutaneously on the left dorsal flank. After 24 h from tumor implantation, mice randomly divided into six groups (6 animals per group). Chemotherapy delayed until day 14 (tumor volumes of about 0.4 cm^3). From day 14, HydroCuP dosed daily at 30 mg/kg i.p., OXP dosed daily at 2 mg/kg i.p. At day 30, animals sacrificed, and the inhibition of tumor growth determined by comparing the volume of the control group and the treatment group expressed as percentage referred to the control animals. Error bars indicate the S.D. *p < 0.05, **p < 0.01, with respect to control. […] Body weight was measured every two days and was taken as a parameter of systemic toxicity. The error bars indicate the S.D. **P < 0.01; *P < 0.05.
(§7) LoVo and LoVo-OXP tumor xenografts were established in 6-week-old BALB/c nu/nu mice by injecting 1 × 10^7 tumor cells subcutaneously (100 μL in serum free medium) on the left dorsal flank. After 24 h from tumor implantation, mice were randomly divided into six groups (6 animals per group, 8 controls). Chemotherapy was delayed until the tumor was about 0.4 cm^3 (day 14). From day 14, HydroCuP was dosed daily at 30 mg/kg i.p. whereas OXP was dosed daily at 2 mg/kg i.p. Measurements of body weights and tumor volumes were recorded from day 14 every 2 days until the experimental endpoint. The long axis (L) and the short axis (S) were measured with callipers, and the tumor volume (V) was calculated using the following equation: V = SxSxL/2. At day 30, animals were sacrificed, and the inhibition of tumor growth was determined by comparing the volume of the control group and the treatment group expressed as percentage referred to the control animals.

[9] = test system: LoVo colorectal oxaliplatin-resistant xenograft; experiment: In vivo activity toward LoVo-OXP (OXP-resistant) tumor xenograft in BALB/c nu/nu mice
Procedure: as §5, §6, §7

[10] = Early treatment, 1.5 mg/kg i.p. days 3, 5, 7, 9, 11, 13
[11] = 2 mg/kg daily i.p. from day 14, day 30

| SMILES | IC50 [1] [µM] | IC50 [2] [µM] | Average tumor weight (mean ± S.D., g) [3, 10] [g] | Inhibition of tumor growth (%) [3, 10] [%] | Body weight changes ([3]; Early treatment, 15 days) | Average tumor weight (mean ± S.D., g) ([3]; Intermediate treatment, 1.5 mg/kg daily i.p. day 7-14) [g] | Inhibition of tumor growth (%) ([3]; Intermediate treatment, 1.5 mg/kg daily i.p. day 7-14, 1.5 mg/kg) | Body weight changes ([3]; Intermediate treatment) | Average tumor weight (mean ± S.D., g) ([3]; Late treatment, 1.5 mg/kg daily i.p. from day 9) [g] | Inhibition of tumor growth (%) ([3]; Late treatment, 1.5 mg/kg daily i.p. from day 9, 1.5 mg/kg) | NAG [4] | uTP excretion [4] | Patients with irreversible renal damage [5] | Neurotoxic effect (neurite elongation) [6] | Rate of symptomatic neurotoxicity with any severity [7] | Reduction of neurite length ([6]; 7.5 µM) [%] | Body weight loss ([8]; 2 mg/kg daily i.p.) | Inhibition of tumor growth [8, 11] | Body weight loss ([9]; 2 mg/kg daily i.p.) | Inhibition of tumor growth [9, 11] [%] |
| --- | --- | --- | --- | --- | --- | --- | --- | --- | --- | --- | --- | --- | --- | --- | --- | --- | --- | --- | --- | --- |
| [NH2][Pt]([NH2])([Cl])[Cl] [CDDP, cisplatin, reference compound] | 68.2 ± 4.58 | 60.6 ± 6.28 | 0.168 ± 0.10 | 73.66 | substantial weight loss | 0.061 ± 0.03 | 87% and 87.84% | elevated weight loss | 0.118 ± 0.10 | 73% and 72.68% | significant increase | significant increase of uTP excretion | about one-third | significantly reduced neurite elongation in a dose-dependent manner |  |  |  |  |  |  |
| O=C1[O][Pt]2([NH][C@@H]3CCCC[C@H]3[NH]2)[O]C1=O [OXP, oxaliplatin] | 30.2 ± 2.34 | 22.2 ± 4.75 |  |  |  |  |  |  |  |  |  |  |  | significantly reduced neurite elongation in a dose-dependent manner | more than 70% | 50 | about 23% | about 55% | about 23% | 20 |

Source: article PMC5655689, “Therapeutic potential of the phosphino Cu(I) complex (HydroCuP) in the treatment of solid tumors” (Scientific Reports, 2017)
